How the values were obtained:
hERG (KCNH2) = hERG (KCNH2) (Homo sapiens, UniProt Q12809); test: Inhibition of human ERG at 10 uM relative to control
[1] = AUC (0 to 6 hrs) in CD-1 mouse at 10 mg/kg, po; format: ADME, organism-based; parameters: dose 10 mg/kg, time < 6 hr, route oral; conditions: in vivo
[2] = molecular target: T1, Amine oxidase [flavin-containing] A (Homo sapiens, UniProt P21397); test: Inhibition of MAOA (unknown origin) at >20 uM
T1 sequence (P21397 whole entry): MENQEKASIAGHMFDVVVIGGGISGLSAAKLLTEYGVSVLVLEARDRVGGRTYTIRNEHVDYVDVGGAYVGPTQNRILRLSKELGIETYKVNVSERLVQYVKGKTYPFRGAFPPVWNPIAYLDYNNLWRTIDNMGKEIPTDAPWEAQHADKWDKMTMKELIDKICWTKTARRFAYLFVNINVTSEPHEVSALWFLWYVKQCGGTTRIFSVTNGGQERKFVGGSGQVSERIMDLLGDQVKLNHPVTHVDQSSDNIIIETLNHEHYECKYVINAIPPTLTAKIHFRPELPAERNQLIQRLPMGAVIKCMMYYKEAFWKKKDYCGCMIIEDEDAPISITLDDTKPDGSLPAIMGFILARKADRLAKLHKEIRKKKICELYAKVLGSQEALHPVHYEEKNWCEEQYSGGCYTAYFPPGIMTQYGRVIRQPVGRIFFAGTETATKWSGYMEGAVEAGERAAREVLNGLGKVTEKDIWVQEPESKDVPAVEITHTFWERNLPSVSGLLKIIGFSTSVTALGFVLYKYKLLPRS

[3] = molecular target: T2, Amine oxidase [flavin-containing] B (Homo sapiens, UniProt P27338); test: Inhibition of MAOB (unknown origin) at >20 uM
T2 sequence (P27338 whole entry): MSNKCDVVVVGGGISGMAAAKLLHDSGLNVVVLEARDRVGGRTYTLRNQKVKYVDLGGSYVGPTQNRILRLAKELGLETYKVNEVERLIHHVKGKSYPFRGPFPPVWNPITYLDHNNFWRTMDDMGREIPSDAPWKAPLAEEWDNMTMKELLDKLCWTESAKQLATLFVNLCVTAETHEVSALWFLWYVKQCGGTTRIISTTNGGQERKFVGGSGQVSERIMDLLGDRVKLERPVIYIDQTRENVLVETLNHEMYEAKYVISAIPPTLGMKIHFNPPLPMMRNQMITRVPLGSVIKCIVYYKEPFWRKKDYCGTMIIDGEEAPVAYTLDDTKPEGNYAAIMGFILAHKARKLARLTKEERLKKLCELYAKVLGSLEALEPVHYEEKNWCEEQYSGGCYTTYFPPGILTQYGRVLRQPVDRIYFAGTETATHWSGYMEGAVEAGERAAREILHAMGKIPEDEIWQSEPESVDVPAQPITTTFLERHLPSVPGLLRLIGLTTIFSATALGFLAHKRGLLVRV

[4] = molecular target: T3, Lysine-specific histone demethylase 1A (Homo sapiens, UniProt O60341); test: Inhibition of LSD1 (unknown origin)
[5] = molecular target: T3, Lysine-specific histone demethylase 1A; test: Inhibition of LSD1 in human THP1 cells assessed as induction of CD11b expression after 4 days by LIVE/DEAD violet staining based FACS analysis

Chain of hERG (KCNH2) (Q12809 whole entry): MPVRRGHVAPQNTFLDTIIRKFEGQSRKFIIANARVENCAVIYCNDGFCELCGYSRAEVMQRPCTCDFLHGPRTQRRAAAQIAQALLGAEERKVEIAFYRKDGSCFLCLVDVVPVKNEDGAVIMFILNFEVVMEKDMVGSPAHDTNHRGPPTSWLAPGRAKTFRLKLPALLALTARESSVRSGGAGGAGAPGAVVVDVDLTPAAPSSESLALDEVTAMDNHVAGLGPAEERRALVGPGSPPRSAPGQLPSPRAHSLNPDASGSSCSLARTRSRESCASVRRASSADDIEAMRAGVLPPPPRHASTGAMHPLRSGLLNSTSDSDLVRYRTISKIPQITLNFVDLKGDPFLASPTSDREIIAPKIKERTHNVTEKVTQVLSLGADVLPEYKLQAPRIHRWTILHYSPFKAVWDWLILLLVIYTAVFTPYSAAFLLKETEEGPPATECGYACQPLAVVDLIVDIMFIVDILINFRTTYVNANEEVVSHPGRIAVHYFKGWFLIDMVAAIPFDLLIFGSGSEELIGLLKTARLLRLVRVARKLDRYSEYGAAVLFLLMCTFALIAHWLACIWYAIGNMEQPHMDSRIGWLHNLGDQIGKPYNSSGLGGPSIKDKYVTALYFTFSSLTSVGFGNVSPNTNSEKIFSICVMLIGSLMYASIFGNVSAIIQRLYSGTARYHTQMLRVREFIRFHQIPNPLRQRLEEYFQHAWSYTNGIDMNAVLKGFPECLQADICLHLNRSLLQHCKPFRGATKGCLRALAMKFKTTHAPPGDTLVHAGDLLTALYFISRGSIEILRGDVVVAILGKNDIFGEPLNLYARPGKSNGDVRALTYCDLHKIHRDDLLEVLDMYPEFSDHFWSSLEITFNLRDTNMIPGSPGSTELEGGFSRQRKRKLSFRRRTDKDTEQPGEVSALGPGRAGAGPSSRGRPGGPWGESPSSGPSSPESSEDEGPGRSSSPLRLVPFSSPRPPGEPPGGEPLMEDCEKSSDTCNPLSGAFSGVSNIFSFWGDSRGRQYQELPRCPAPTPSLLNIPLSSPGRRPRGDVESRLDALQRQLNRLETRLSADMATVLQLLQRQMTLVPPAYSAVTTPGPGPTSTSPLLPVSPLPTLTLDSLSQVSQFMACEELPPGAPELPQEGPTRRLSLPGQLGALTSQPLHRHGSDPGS

SMILES	inhibition at 10 µM (hERG (KCNH2))	AUC(0-t) at 6 h [1]	inhibition (INH) [2]	inhibition (INH) [3]	IC50 [4]	EC50 [5]
Cc1c(C(=O)N2CC[C@H](N)C2)nc(-c2ccc(C#N)c(F)c2)n1-c1ccc2nn(C)cc2c1	12%	80 ng·h/mL	Active	Active	–	–
Cc1c(C(=O)N2CCC[C@@H](N)C2)nc(-c2ccc(C#N)c(F)c2)n1-c1ccc2nn(C)c(Cl)c2c1	28%	100 ng·h/mL	Active	Active	–	–
Cc1c(C(=O)N2CC[C@H](N(C)C)C2)nc(-c2ccc(C#N)c(F)c2)n1-c1ccc2nn(C)cc2c1	30%	760 ng·h/mL	Active	Active	–	–
COc1ccc(-n2c(-c3ccc(C#N)c(F)c3)nc(C(=O)N3CCC[C@@H](N)C3)c2C)cc1F	30%	–	–	–	–	–
Cc1c(C(=O)N2CCC[C@@H](N)C2)nc(-c2ccc(C#N)c(F)c2)n1-c1ccc2nn(C)cc2c1	< 10%	25 ng·h/mL	–	–	–	–
Cc1ccc(-n2c(-c3ccc(C#N)cc3)nc(C(=O)N3CCC[C@@H](N)C3)c2C)cc1	94%	–	–	–	–	–
Cc1c(C(=O)N2CC[C@H](N(C)C)C2)nc(-c2ccc(C#N)c(F)c2)n1-c1cc(F)c2nn(C)cc2c1	17%	660 ng·h/mL	Active	Active	–	–
CN[C@H]1CCN(C(=O)c2nc(-c3ccc(C#N)c(F)c3)n(-c3ccc4nn(C)c(Cl)c4c3)c2C)C1	24%	640 ng·h/mL	Active	Active	–	–
COc1ccc(-n2c(-c3ccc(C#N)c(F)c3)nc(C(=O)N3CCC[C@@H](N)C3)c2C)cc1	69%	–	–	–	–	–
Cc1ccc(-c2ncc(OC[C@@H]3CCNC3)cc2-c2ccc(C#N)cc2)cc1	90%	–	–	–	10 nM	62 nM
Cc1c(C(=O)N2CC[C@H](N(C)C)C2)nc(-c2ccc(C#N)c(F)c2)n1-c1cc2cn(C)nc2cc1F	44%	940 ng·h/mL	Active	Active	–	–
Cc1c(C(=O)N2CCC[C@@H](N)C2)nc(-c2ccc(C#N)c(F)c2)n1-c1ccc2c(cnn2C)c1	52%	106 ng·h/mL	–	–	–	–
CN[C@H]1CCN(C(=O)c2nc(-c3ccc(C#N)c(F)c3)n(-c3cc4cn(C)nc4cc3F)c2C)C1	22%	–	Active	Active	–	–
CN[C@@H]1CCCN(C(=O)c2nc(-c3ccc(C#N)c(F)c3)n(-c3ccc4nn(C)c(Cl)c4c3)c2C)C1	34%	410 ng·h/mL	Active	Active	–	–
COc1ccc(-n2c(-c3ccc(C#N)c(F)c3)nc(C(=O)N3CC[C@H](N)C3)c2C)cc1F	41%	–	–	–	–	–
COc1ccc(-n2c(-c3ccc(C#N)c(F)c3)nc(C(=O)N[C@@H]3CCCNC3)c2C)cc1F	65%	–	–	–	–	–
